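Tested at 5 concentrations; 48 h exposure; 96-well plates; endpoints linearly interpolated, else capped at highest concentration. GI50 is the concentration that inhibits growth by half.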 Active and inactive are the calls of the source. No stated cut-off is given here; in the data, active = GI50 up to about 1.1 µM and inactive = higher.
How the values were obtained:
Test in all cases: inhibition of tumour cell growth, NCI panel, 48 h
[1] = tested on: SK-MEL-5
[2] = tested on: HT-29
[3] = tested on: HCT-15
[4] = tested on: A498
[5] = tested on: EKVX
[6] = tested on: COLO 205
[7] = tested on: RXF 393
[8] = tested on: NCI-H226
[9] = tested on: ACHN
[10] = tested on: NCI-H522
[11] = tested on: RPMI-8226
[12] = tested on: TK-10
[13] = tested on: 786-0
[14] = tested on: HOP-62
[15] = tested on: OVCAR-8
[16] = tested on: UACC-257
[17] = tested on: SF-295
[18] = tested on: XF498
[19] = tested on: SNB-19
[20] = tested on: SN12C
[21] = tested on: SR
[22] = tested on: RXF 631
[23] = tested on: UO-31
[24] = tested on: OVCAR-4
[25] = tested on: HCC 2998
[26] = tested on: SW-620
[27] = tested on: UACC-62
[28] = tested on: SK-MEL-28
[29] = tested on: HL-60
[30] = tested on: SK-OV-3
[31] = tested on: K562
[32] = tested on: KM-20L2
[33] = tested on: DMS-273
[34] = tested on: HOP-92
[35] = tested on: NCI-H23
[36] = tested on: HCT-116
[37] = tested on: NCI-H460
[38] = tested on: Malme-3M
[39] = tested on: A549
[40] = tested on: KM12
[41] = tested on: M14
[42] = tested on: CAKI-1
[43] = tested on: SNB-75
[44] = tested on: LOX IMVI
[45] = tested on: CCRF-CEM
[46] = tested on: DMS-114
[47] = tested on: SF-268
[48] = tested on: LXFL 529
[49] = tested on: M19-MEL
[50] = tested on: SF-539
[51] = tested on: MOLT-4
[52] = tested on: U-251
[53] = tested on: DLD-1
[54] = tested on: OVCAR-5
[55] = tested on: OVCAR-3
[56] = tested on: IGROV-1
[57] = tested on: HOP-18
[58] = tested on: SK-MEL-2
[59] = tested on: SNB-78

For `CN(C)CC(C)(C)C(=O)/C=C/c1ccc(/C=C/C(=O)C(C)(C)CN(C)C)cc1`, the GI50 [1] was 2.32 µM (inactive), the GI50 [2] was 0.51 µM (active) and the GI50 [3] was 0.605 µM. For the same compound, the GI50 [4] was 1.9 µM (inactive), the GI50 [5] was 1.45 µM (inactive) and the GI50 [6] was 1.03 µM (active). The GI50 [7] was 1.17 µM (inactive), the GI50 [8] was 2.23 µM (inactive) and the GI50 [9] was 1.47 µM (inactive). The GI50 [10] was 0.136 µM (active), the GI50 [11] was 1.97 µM (inactive) and the GI50 [12] was 1.64 µM (inactive). For the same compound, the GI50 [13] was 1.6 µM (inactive), the GI50 [14] was 2.14 µM (inactive) and the GI50 [15] was 2.39 µM (inactive). For the same compound, the GI50 [16] was 2.09 µM (inactive), the GI50 [17] was 2.05 µM (inactive) and the GI50 [18] was 1.22 µM (inactive). The GI50 [19] was 1.96 µM (inactive), the GI50 [20] was 1.42 µM (inactive) and the GI50 [21] was 2.28 µM (inactive). The GI50 [22] was 2 µM (inactive), the GI50 [23] was 1.99 µM (inactive) and the GI50 [24] was 1.02 µM (active). For the same compound, the GI50 [25] was 1.66 µM (inactive), the GI50 [26] was 0.706 µM (active) and the GI50 [27] was 1.74 µM (inactive). For the same compound, the GI50 [28] was 1.87 µM (inactive), the GI50 [29] was 1.61 µM (inactive) and the GI50 [30] was 2.81 µM (inactive). The GI50 [31] was 0.202 µM (active), the GI50 [32] was 1.04 µM (active) and the GI50 [33] was 0.706 µM (active). The GI50 [34] was 0.682 µM (active), the GI50 [35] was 1.91 µM (inactive) and the GI50 [36] was 1.26 µM (inactive). For the same compound, the GI50 [37] was 3.78 µM (inactive), the GI50 [38] was 1.87 µM (inactive) and the GI50 [39] was 2.79 µM (inactive). For the same compound, the GI50 [40] was 1.85 µM (inactive), the GI50 [41] was 1.62 µM (inactive) and the GI50 [42] was 1.42 µM (inactive). For the same compound, the GI50 [43] was 1.58 µM (inactive), the GI50 [44] was 0.456 µM (active) and the GI50 [45] was 1.05 µM (active). The GI50 [46] was 1.3 µM (inactive), the GI50 [47] was 1.35 µM (inactive) and the GI50 [48] was 1.17 µM (inactive). For the same compound, the GI50 [49] was 1.66 µM (inactive), the GI50 [50] was 2.13 µM (inactive) and the GI50 [51] was 0.519 µM (active). The GI50 [52] was 1.61 µM (inactive), the GI50 [53] was 0.28 µM (active) and the GI50 [54] was 1.82 µM (inactive). The GI50 [55] was 1.29 µM (inactive) and the GI50 [56] was 1.71 µM (inactive).
For `COC(=O)Cc1cc(=O)[nH]c2c1C(=O)CCC2`, the GI50 [1] was > 100 µM (inactive), the GI50 [2] was > 100 µM (inactive) and the GI50 [3] was > 100 µM. The GI50 [5] was > 100 µM (inactive), the GI50 [7] was > 100 µM (inactive) and the GI50 [8] was > 100 µM (inactive). The GI50 [9] was > 100 µM (inactive), the GI50 [10] was > 100 µM (inactive) and the GI50 [11] was > 100 µM (inactive). For the same compound, the GI50 [12] was > 100 µM (inactive), the GI50 [13] was > 100 µM (inactive) and the GI50 [15] was > 100 µM (inactive). For the same compound, the GI50 [16] was > 100 µM (inactive), the GI50 [17] was > 100 µM (inactive) and the GI50 [18] was > 100 µM (inactive). The GI50 [19] was > 100 µM (inactive), the GI50 [57] was > 100 µM (inactive) and the GI50 [20] was > 100 µM (inactive). For the same compound, the GI50 [58] was > 100 µM (inactive), the GI50 [21] was > 100 µM (inactive) and the GI50 [23] was > 100 µM (inactive). The GI50 [25] was > 100 µM (inactive), the GI50 [26] was > 100 µM (inactive) and the GI50 [28] was > 100 µM (inactive). For the same compound, the GI50 [29] was > 100 µM (inactive), the GI50 [30] was > 100 µM (inactive) and the GI50 [31] was > 100 µM (inactive). For the same compound, the GI50 [34] was > 100 µM (inactive), the GI50 [35] was > 100 µM (inactive) and the GI50 [37] was > 100 µM (inactive). For the same compound, the GI50 [38] was > 100 µM (inactive), the GI50 [39] was > 100 µM (inactive) and the GI50 [40] was > 100 µM (inactive). For the same compound, the GI50 [41] was > 100 µM (inactive), the GI50 [45] was > 100 µM (inactive) and the GI50 [47] was > 100 µM (inactive). For the same compound, the GI50 [48] was > 100 µM (inactive), the GI50 [50] was > 100 µM (inactive) and the GI50 [51] was > 100 µM (inactive). The GI50 [52] was > 100 µM (inactive), the GI50 [53] was > 100 µM (inactive) and the GI50 [54] was > 100 µM (inactive). The GI50 [55] was > 100 µM (inactive) and the GI50 [56] was > 100 µM (inactive).
With `O=C(Nc1cccc([N+](=O)[O-])c1)C(=O)C(C(=O)c1ccccc1-c1ccccc1)C1OC(=O)c2ccccc21` (stereo unspecified) the GI50 [1] was 16.2 µM (inactive), the GI50 [2] was 38.8 µM (inactive) and the GI50 [4] was 23.2 µM (inactive). The GI50 [5] was 25.6 µM (inactive), the GI50 [6] was 20 µM (inactive) and the GI50 [7] was 13.3 µM (inactive). The GI50 [8] was 5.96 µM (inactive), the GI50 [9] was 35.6 µM (inactive) and the GI50 [10] was 11.4 µM (inactive). The GI50 [11] was 13.4 µM (inactive), the GI50 [12] was 30.4 µM (inactive) and the GI50 [13] was 18.7 µM (inactive). For the same compound, the GI50 [14] was 16.6 µM (inactive), the GI50 [15] was 22.3 µM (inactive) and the GI50 [16] was 20.1 µM (inactive). For the same compound, the GI50 [17] was 22 µM (inactive), the GI50 [18] was 20.4 µM (inactive) and the GI50 [58] was 17.9 µM (inactive). The GI50 [22] was 22 µM (inactive), the GI50 [23] was 20.2 µM (inactive) and the GI50 [25] was 16.2 µM (inactive). For the same compound, the GI50 [26] was 27.2 µM (inactive), the GI50 [27] was 19.5 µM (inactive) and the GI50 [28] was 23.5 µM (inactive). For the same compound, the GI50 [29] was 16.2 µM (inactive), the GI50 [30] was 32.5 µM (inactive) and the GI50 [31] was 28 µM (inactive). The GI50 [32] was 23.3 µM (inactive), the GI50 [34] was 13.4 µM (inactive) and the GI50 [35] was 14.7 µM (inactive). For the same compound, the GI50 [36] was 12.8 µM (inactive), the GI50 [37] was 25.9 µM (inactive) and the GI50 [38] was 13.6 µM (inactive). The GI50 [39] was 26.9 µM (inactive), the GI50 [40] was 20 µM (inactive) and the GI50 [41] was 17.8 µM (inactive). For the same compound, the GI50 [43] was 22.9 µM (inactive), the GI50 [44] was 17 µM (inactive) and the GI50 [45] was 22.9 µM (inactive). For the same compound, the GI50 [46] was 14.5 µM (inactive), the GI50 [47] was 22.2 µM (inactive) and the GI50 [48] was 13.1 µM (inactive). The GI50 [59] was 23.2 µM (inactive), the GI50 [49] was 15.9 µM (inactive) and the GI50 [50] was 14.5 µM (inactive). The GI50 [51] was 13.2 µM (inactive), the GI50 [52] was 13.4 µM (inactive) and the GI50 [53] was 19.9 µM (inactive). For the same compound, the GI50 [54] was 22 µM (inactive), the GI50 [55] was 15.4 µM (inactive) and the GI50 [56] was 30.8 µM (inactive).
